Results reported in paper PMC3415323 (International Journal of Nanomedicine, 2012).

Molecular target: p-gp (Homo sapiens, UniProt P08183)
Assay: Effect of p-gp inhibitors on cellular transport of HSYA solution
Format: in vitro ADME
Details: Figure 5A

p-gp, sequence (P08183 whole entry): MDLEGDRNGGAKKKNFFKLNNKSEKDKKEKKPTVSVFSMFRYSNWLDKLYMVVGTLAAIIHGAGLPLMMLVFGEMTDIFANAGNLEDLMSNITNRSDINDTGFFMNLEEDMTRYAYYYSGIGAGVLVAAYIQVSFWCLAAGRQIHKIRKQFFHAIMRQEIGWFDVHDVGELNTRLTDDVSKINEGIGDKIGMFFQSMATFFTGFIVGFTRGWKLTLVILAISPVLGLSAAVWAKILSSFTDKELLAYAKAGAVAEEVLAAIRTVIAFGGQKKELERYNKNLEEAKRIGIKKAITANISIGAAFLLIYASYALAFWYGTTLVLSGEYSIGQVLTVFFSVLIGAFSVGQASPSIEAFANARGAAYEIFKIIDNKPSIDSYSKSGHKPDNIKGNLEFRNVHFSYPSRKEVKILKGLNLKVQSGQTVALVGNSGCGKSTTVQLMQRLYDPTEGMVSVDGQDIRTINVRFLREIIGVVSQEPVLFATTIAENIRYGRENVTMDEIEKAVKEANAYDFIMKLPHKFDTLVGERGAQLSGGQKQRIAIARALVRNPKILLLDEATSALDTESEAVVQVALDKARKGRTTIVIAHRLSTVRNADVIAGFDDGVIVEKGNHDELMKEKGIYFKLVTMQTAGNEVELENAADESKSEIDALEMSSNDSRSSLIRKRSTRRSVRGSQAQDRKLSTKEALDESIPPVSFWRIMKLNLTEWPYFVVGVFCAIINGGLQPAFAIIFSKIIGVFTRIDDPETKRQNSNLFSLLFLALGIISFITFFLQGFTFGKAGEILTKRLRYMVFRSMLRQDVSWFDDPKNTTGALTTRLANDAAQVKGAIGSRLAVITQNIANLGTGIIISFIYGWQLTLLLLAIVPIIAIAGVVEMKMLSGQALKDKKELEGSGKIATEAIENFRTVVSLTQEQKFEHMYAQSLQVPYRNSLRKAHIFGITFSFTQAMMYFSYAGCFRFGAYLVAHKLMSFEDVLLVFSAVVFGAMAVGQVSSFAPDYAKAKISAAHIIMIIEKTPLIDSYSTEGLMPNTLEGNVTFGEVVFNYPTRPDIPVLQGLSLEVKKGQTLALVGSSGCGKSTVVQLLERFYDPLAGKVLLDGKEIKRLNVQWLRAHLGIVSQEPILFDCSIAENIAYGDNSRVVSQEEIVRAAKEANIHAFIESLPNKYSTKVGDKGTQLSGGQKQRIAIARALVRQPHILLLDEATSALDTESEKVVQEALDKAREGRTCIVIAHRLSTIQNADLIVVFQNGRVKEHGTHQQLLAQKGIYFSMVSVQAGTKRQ

**Q.** `Cc1nc(C)c(C)nc1C` [TMP, tetramethylpyrazine] was tested. Which “effect on the absorption of HSYA on Caco-2 cells” value did it give?
**A.** Its value is “significantly increased”.
